According to paper PMC10385865, “Synthesis and Anticancer Activity of Novel Dual Inhibitors of Human Protein Kinases CK2 and PIM-1” (Pharmaceutics, 2023):
Like-named read-outs stand apart in the source and are kept apart here.

What was measured:
[1] = test system: CCRF-CEM (acute lymphoblastic leukemia); assay: MTT-based viability assay, CCRF-CEM; type: cell-based, human; details: for IC50: Homo sapiens, CCRF-CEM, 48 h, read-out: IC50 CCRF-CEM
Procedure: (§1) After incubation with the tested compounds, an MTT test was performed as described previously. Optical densities were measured at 570 nm using a BioTek microplate reader (BioTek Instruments, Inc., Winooski, VT, USA). All measurements were carried out in a minimum of three biological replicates.
(§2) . The IC50 values describing the half-maximal effective concentration of each tested compound were calculated and are summarized in Table 2. […].

CCRF-CEM cells [2] = assay: Annexin V/propidium iodide apoptosis, flow cytometry, CCRF-CEM; details: 48 h; for Early apoptosis / Late apoptosis / Necrosis: mean±SD; for viability at 5 µM / viability at 10 µM: Homo sapiens, read-out: Viable
Procedure: (§7) MCF-7 cells were seeded in 6-well plates at 1.2 × 10^5 cells/well, whereas CCRF-CEM and K-562 cells were seeded in 24-well plates at a density of 2 × 10^5/mL. Cells were treated with the tested compounds used in 5 µM and 10 µM concentrations. Then, the plates were incubated for 48 h. After exposure to the examined compounds, the cells were collected and centrifugated at 200× g at 4 °C for 5 min, washed twice in cold phosphate-buffered saline (PBS), and subsequently suspended in binding buffer at 1 × 10^6 cells/mL. Subsequently, 100-μL aliquots of the cell suspension were labeled according to the instructions of the respective manufacturer’s kit. Briefly, annexin V-fluorescein isothiocyanate and propidium iodide (BD Biosciences, Pharmingen, San Diego, CA, USA) were added to the cell suspension, and the mixture was vortexed, then incubated for 15 min at RT in the dark. A cold binding buffer (400 μL) was then added, and the cells were vortexed again and kept on ice. Flow cytometric measurements were performed within 1 h after labeling. Viable, necrotic, early, and late apoptotic cells were detected by flow cytometry using a BD FACSCanto II flow cytometer and analyzed using BD FACSDiva operating software (BD Biosciences, San Jose, CA, USA).

K-562 cells [3] = assay: Cell cycle progression by flow cytometry (PI), K-562; type: cell-based, human; details: for K-562 cells in S phase (maximum): K-562, 15 µM, 48 h; for cell cycle arrest (phase, in words): K-562, 48 h
Procedure: (§3) MCF-7, CCRF-CEM, and K-562 cells were cultured in 6-well plates and treated with the tested compounds for 48 h. After exposure to the compounds, the cells were collected and washed with cold PBS and fixed at −20 °C in 70% ethanol for at least 24 h. Subsequently, cells were washed in PBS and stained with 50 μg/mL PI (propidium iodide) and 100 μg/mL RNase solution in PBS supplemented with 0.1% v/v Triton X-100 for 30 min in the dark at RT. Cellular DNA content was determined by flow cytometry employing a BD FACSCanto II flow cytometer (BD Biosciences, San Jose, CA, USA). The obtained DNA histograms were analyzed using MacCycle software (Phoenix Flow Systems, San Diego, CA, USA) for evaluation of the distribution of the cells in different phases of the cell cycle.
(§4) Since CK2 controls cell cycle progression and, consequently, its inhibition can affect the distribution of cells in the individual phases of the cell cycle, we tested the cell cycle progression in CCRF-CEM, K-562, and MCF-7 cells after treatment with 4 and rac-6. Representative plots DNA histograms with the calculations of cell percentages in each phase of the cell cycle are depicted in Figure 7. […] Accumulation of cells in sub-G1 indicates DNA degradation, as often seen in apoptotic cells, confirming the results obtained with annexin V and PI staining.

MCF-7 cells = assay: Cell cycle progression by flow cytometry (PI), MCF-7; type: cell-based, human; details: MCF-7, 48 h
Procedure: as §3, §4

[4] = molecular target: T1, human CK2 holoenzyme (CK2α2β2) (Homo sapiens, UniProt P68400); assay: P81 filter isotopic (radiometric) kinase assay, CK2 holoenzyme; type: biochemical; details: substrate peptide […], Ki from IC50 by Cheng–Prusoff
T1 construct: made in house
T1 sequence (P68400 whole entry): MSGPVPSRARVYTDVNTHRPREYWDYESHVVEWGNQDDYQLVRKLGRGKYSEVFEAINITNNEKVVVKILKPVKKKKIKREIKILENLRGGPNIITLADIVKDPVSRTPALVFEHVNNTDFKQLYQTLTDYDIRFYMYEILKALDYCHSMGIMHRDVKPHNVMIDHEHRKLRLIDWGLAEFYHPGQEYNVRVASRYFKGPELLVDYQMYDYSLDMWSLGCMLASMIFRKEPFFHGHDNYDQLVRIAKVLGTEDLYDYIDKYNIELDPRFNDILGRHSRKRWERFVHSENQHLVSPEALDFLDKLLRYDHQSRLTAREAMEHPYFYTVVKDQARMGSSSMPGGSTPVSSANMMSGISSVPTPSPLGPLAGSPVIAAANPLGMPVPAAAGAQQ
T1 sequence (P67870 whole entry partner): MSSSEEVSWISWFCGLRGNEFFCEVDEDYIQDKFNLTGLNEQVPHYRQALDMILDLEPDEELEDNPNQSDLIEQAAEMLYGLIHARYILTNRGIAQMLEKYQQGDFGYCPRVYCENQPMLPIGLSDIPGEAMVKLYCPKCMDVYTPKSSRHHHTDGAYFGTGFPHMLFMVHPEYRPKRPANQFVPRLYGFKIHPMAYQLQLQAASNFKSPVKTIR
Procedure: (§5) The obtained compounds were tested for their inhibitory activity toward human CK2α, human CK2 holoenzyme, and PIM-1 using a P81 filter isotopic assay as described previously. […] The experimental data were fitted to the sigmoidal dose–response equation, i.e., (variable slope) Y = Bottom + (Top-Bottom)/(1 + 10^((LogIC50−X)∗HillSlope), in GraphPad Prism (Prism 9, v. 9.0.1).
(§6) Inhibition of the human CK2 catalytic subunit (CK2α), CK2 holoenzyme (CK2α2β2), and PIM-1 by the newly obtained compounds was evaluated using a radiometric assay (Table 1, Figure S2). The synthetic peptide […] was used as the substrate of CK2, and peptide […] was used as the substrate of PIM-1. The values of the inhibition constant (Ki) were calculated using the Cheng–Prusoff equation: Ki = IC50/(1 + [S]/Km).

CCRF-CEM cells [5] = assay: Mitochondrial membrane potential (ΔΨm) assay, JC-1, flow cytometry; type: cell-based, human; details: 10 µM, 48 h
Procedure: Mitochondrial membrane potential was assessed by flow cytometry using 5,5′,6,6′-tetrachloro-1,1′,3,3′-tetraethylbenzimidazolocarbocyanine iodide (JC-1; Sigma-Aldrich, St. Louis, MO, USA). JC-1 undergoes potential-dependent accumulation in mitochondria. In healthy cells, the dye accumulates in mitochondria, forming aggregates with red fluorescence (FL-2 channel), whereas in dead and apoptotic cells, the dye remains in the cytoplasm in a monomeric form and emits green fluorescence (FL-1 channel). Cells were harvested by centrifugation 48 h post treatment, suspended in 1 mL of complete culture medium at approximately 1 × 10^6 cells/mL, and incubated with 2.5 µL of JC-1 solution in DMSO (1 mg/mL) for 15 min at 37 °C in the dark. The stained cells were then washed with cold PBS, suspended in 400 µL of PBS, and examined by flow cytometry.
The most significant effect, i.e., 45% of cells with reduced ΔΨm, was obtained in cells treated with 10 µM conc. of rac-6.

human CK2α = molecular target: T2, human CK2α (Homo sapiens, UniProt P68400); assay: P81 filter isotopic (radiometric) kinase assay, CK2 catalytic subunit; type: biochemical; details: substrate peptide […], Ki from IC50 by Cheng–Prusoff
T2 construct: made in house
T2 sequence (P68400 whole entry): as the sequence (P68400 whole entry) above
Procedure: as §5, §6

Vero cells = assay: MTT-based viability assay, non-cancerous Vero cells; type: cell-based, Cercopithecus aethiops; details: Chlorocebus sabaeus, 48 h, read-out: IC50 Vero
Procedure: as §1, §2

K-562 cells [6] = assay: Annexin V/propidium iodide apoptosis, flow cytometry, K-562; details: for viability at 5 µM / viability at 10 µM: Homo sapiens, K562, 48 h, read-out: Viable; for Early apoptosis / Late apoptosis / Necrosis: mean±SD
Procedure: as §7

| Structure (SMILES) | Early apoptosis (CCRF-CEM cells [2]; 5 µM) [%] | Late apoptosis (CCRF-CEM cells [2]; 5 µM) [%] | Necrosis (CCRF-CEM cells [2]; 5 µM) [%] | Early apoptosis (CCRF-CEM cells [2]; 10 µM) [%] | Late apoptosis (CCRF-CEM cells [2]; 10 µM) [%] | Necrosis (CCRF-CEM cells [2]; 10 µM) [%] | viability at 5 µM (CCRF-CEM cells [2]) [%] | viability at 10 µM (CCRF-CEM cells [2]) [%] | K-562 cells in S phase (maximum) (K-562 cells [3]) [%] | cell cycle arrest (phase, in words) (K-562 cells [3]) | cell cycle arrest (phase, in words) (MCF-7 cells) | viability at 5 µM (K-562 cells [6]) [%] | viability at 10 µM (K-562 cells [6]) [%] | Early apoptosis (K-562 cells [6]; K-562, 5 µM, 48 h) [%] | Late apoptosis (K-562 cells [6]; K-562, 5 µM, 48 h) [%] | Necrosis (K-562 cells [6]; K-562, 5 µM, 48 h) [%] | percentage of total apoptotic K-562 cells (K-562 cells [6]; K-562, 10 µM, 48 h) [%] | Early apoptosis (K-562 cells [6]; K-562, 10 µM, 48 h) [%] | Late apoptosis (K-562 cells [6]; K-562, 10 µM, 48 h) [%] | Necrosis (K-562 cells [6]; K-562, 10 µM, 48 h) [%] | other results |
| --- | --- | --- | --- | --- | --- | --- | --- | --- | --- | --- | --- | --- | --- | --- | --- | --- | --- | --- | --- | --- | --- |
| OC(CNc1nc2c(Br)c(Br)c(Br)c(Br)c2[nH]1)C(F)(F)F (racemic) [rac-6, 1,1,1-Trifluoro-3-[(4,5,6,7-tetrabromo-1H-benzimidazol-2-yl)amino]propan-2-ol] | 2.75±0.07 | 18.85±3.61 | 2.45±0.07 | 2.30±0.42 | 44.05±4.03 | 5.00±1.41 | 76 ± 3.75 | 48.6 ± 2.26 | 56.1 | S-phase arrest | G1-phase arrest | 87.97 ± 0.81 | 82.8 ± 3.68 | 5.13±0.40 | 5.97±1.02 | 0.63±0.06 | 15.5 | 4.67±1.21 | 10.80±4.06 | 1.70±0.60 | IC50 ([1]; MTT): 11.8 ± 0.4 µM; SI (selectivity index) CCRF-CEM ([1]; IC50 Vero/IC50 cancer cells): 1.72; cells in early and late apoptosis (CCRF-CEM cells [2]; 10 µM): 47%; Ki [4]: 0.112 µM; cells with reduced ΔΨm (CCRF-CEM cells [5]): 45%; Ki (human CK2α): 0.294 µM; IC50 (Vero cells; MTT): 20.4 ± 0.41 µM; induction of apoptosis (in words) (K-562 cells [6]; K-562, 5 and 10 µM, 48 h): no significant apoptosis observed |
| CN(C)c1nc2c(Br)c(Br)c(Br)c(Br)c2[nH]1 [Compound 4, 4,5,6,7-Tetrabromo-N,N-dimethyl-1H-benzimidazol-2-amine, reference compound] | 1.65±0.78 | 13.55±0.35 | 1.45±0.07 | 1.55±0.07 | 16.75±0.21 | 1.35±0.49 | 83.3 ± 0.57 | 80.35 ± 0.78 | 57.7 | S-phase arrest | S-phase arrest | 92.3 ± 0.99 | 90.6 ± 4.27 | 1.95±0.61 | 4.70±1.21 | 1.05±0.69 | 8.7 | 1.33±0.67 | 7.43±3.52 | 0.67±0.31 | IC50 [1]: 18.9 ± 0.88 µM; IC50 (Vero cells): 18.7 ± 0.33 µM |
